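A five-concentration, 48-hour dose response in 96-well plates underlies each endpoint, interpolated linearly between surrounding concentrations. TGI: concentration producing complete growth inhibition.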
Assays:
Assay in all cases: NCI-60 cell line screen, 48 h
[1] = system: NCI-H460 lung
[2] = system: HOP-62 NSCLC
[3] = system: LXFL 529 NSCLC
[4] = system: A549 NSCLC
[5] = system: SNB-78 CNS
[6] = system: HCC-2998 colon
[7] = system: MOLT-4 leukemia
[8] = system: OVCAR-8 ovarian
[9] = system: HL-60(TB) leukemia
[10] = system: DLD-1 colon
[11] = system: A498 renal
[12] = system: RPMI-8226 leukemia
[13] = system: SK-MEL-2 melanoma
[14] = system: CCRF-CEM leukemia
[15] = system: DMS 114 small cell lung
[16] = system: U251 CNS
[17] = system: K-562 leukemia
[18] = system: IGROV1 ovarian
[19] = system: SNB-75 CNS
[20] = system: HOP-92 NSCLC
[21] = system: NCI-H23 lung
[22] = system: 786-0 renal
[23] = system: HT29 colon
[24] = system: LOX IMVI melanoma
[25] = system: HOP-18 NSCLC
[26] = system: MALME-3M melanoma
[27] = system: TK-10 renal
[28] = system: SNB-19 CNS
[29] = system: SF-539 CNS
[30] = system: EKVX NSCLC
[31] = system: M19-MEL melanoma
[32] = system: UACC-62 melanoma
[33] = system: UO-31 renal
[34] = system: COLO 205 colon
[35] = system: KM20L2 colon
[36] = system: OVCAR-4 ovarian
[37] = system: DMS 273 small cell lung
[38] = system: RXF 393 renal
[39] = system: HCT-116 colon
[40] = system: ACHN renal
[41] = system: SK-MEL-5 melanoma
[42] = system: SF-295 CNS
[43] = system: OVCAR-3 ovarian
[44] = system: SK-MEL-28 melanoma
[45] = system: KM12 colon
[46] = system: SW-620 colon
[47] = system: UACC-257 melanoma
[48] = system: NCI-H226 lung
[49] = system: M14 melanoma
[50] = system: SK-OV-3 ovarian
[51] = system: SR leukemia
[52] = system: SF-268 CNS
[53] = system: CAKI-1 renal
[54] = system: SN12C renal
[55] = system: OVCAR-5 ovarian
[56] = system: NCI-H522 lung
[57] = system: HCT-15 colon

For `O=C(c1ccccc1)N1CCN2CCN=C(c3ccccc3)C21c1ccccc1` (stereo unspecified), the TGI [1] was greater than 100 µM, the TGI [2] was greater than 100 µM and the TGI [3] was greater than 100 µM. For the same molecule, the TGI [4] was greater than 100 µM, the TGI [5] was greater than 100 µM and the TGI [6] was greater than 100 µM. The TGI [7] was greater than 100 µM, the TGI [8] was greater than 100 µM and the TGI [9] was greater than 100 µM. For the same molecule, the TGI [10] was greater than 100 µM, the TGI [11] was greater than 100 µM and the TGI [12] was greater than 100 µM. For the same molecule, the TGI [13] was greater than 100 µM, the TGI [14] was greater than 100 µM and the TGI [15] was greater than 100 µM. For the same molecule, the TGI [16] was greater than 100 µM, the TGI [17] was greater than 100 µM and the TGI [18] was greater than 100 µM. It also gave a TGI [19] greater than 100 µM, a TGI [20] greater than 100 µM and a TGI [21] greater than 100 µM. It also gave a TGI [22] greater than 100 µM, a TGI [23] greater than 100 µM and a TGI [24] greater than 100 µM. The TGI [25] was greater than 100 µM, the TGI [26] was greater than 100 µM and the TGI [27] was greater than 100 µM. It also gave a TGI [28] greater than 100 µM, a TGI [29] greater than 100 µM and a TGI [30] greater than 100 µM. For the same molecule, the TGI [31] was greater than 100 µM, the TGI [32] was greater than 100 µM and the TGI [33] was greater than 100 µM. For the same molecule, the TGI [34] was greater than 100 µM, the TGI [35] was greater than 100 µM and the TGI [36] was greater than 100 µM. For the same molecule, the TGI [37] was greater than 100 µM, the TGI [38] was greater than 100 µM and the TGI [39] was greater than 100 µM. For the same molecule, the TGI [40] was greater than 100 µM, the TGI [41] was greater than 100 µM and the TGI [42] was greater than 100 µM. For the same molecule, the TGI [43] was greater than 100 µM, the TGI [44] was greater than 100 µM and the TGI [45] was greater than 100 µM. For the same molecule, the TGI [46] was greater than 100 µM, the TGI [47] was greater than 100 µM and the TGI [48] was greater than 100 µM. For the same molecule, the TGI [49] was greater than 100 µM and the TGI [50] was greater than 100 µM.
For `CCCCCC(=O)N[C@H]1CCc2cc(O)c(O)c(O)c2-c2ccc(SC)c(=O)cc21`, the TGI [1] was greater than 100 µM, the TGI [2] was greater than 100 µM and the TGI [3] was 48.7 µM. The TGI [51] was 68.8 µM, the TGI [4] was greater than 100 µM and the TGI [5] was greater than 100 µM. It also gave a TGI [52] greater than 100 µM, a TGI [6] greater than 79 µM and a TGI [53] of 91.6 µM. For the same molecule, the TGI [7] was 90.1 µM, the TGI [8] was greater than 59.8 µM and the TGI [9] was 51.2 µM. It also gave a TGI [10] of 40.6 µM, a TGI [11] of 64.1 µM and a TGI [12] greater than 100 µM. It also gave a TGI [13] of 72.4 µM, a TGI [14] greater than 76.9 µM and a TGI [54] of 42.7 µM. The TGI [15] was 24 µM, the TGI [16] was greater than 73.8 µM and the TGI [17] was greater than 49.9 µM. The TGI [18] was greater than 100 µM, the TGI [19] was 78.5 µM and the TGI [20] was 90.9 µM. The TGI [21] was 55 µM, the TGI [22] was greater than 100 µM and the TGI [23] was greater than 87.1 µM. For the same molecule, the TGI [24] was 44.3 µM, the TGI [26] was greater than 100 µM and the TGI [55] was greater than 100 µM. It also gave a TGI [27] greater than 100 µM, a TGI [28] greater than 100 µM and a TGI [56] of 54.5 µM. The TGI [29] was 45.3 µM, the TGI [30] was greater than 100 µM and the TGI [31] was 53.1 µM. For the same molecule, the TGI [32] was 83.4 µM, the TGI [57] was 42.9 µM and the TGI [33] was greater than 100 µM. The TGI [34] was 44.5 µM, the TGI [35] was 53.7 µM and the TGI [36] was 44.7 µM. For the same molecule, the TGI [37] was greater than 100 µM, the TGI [38] was greater than 100 µM and the TGI [39] was 33 µM. It also gave a TGI [40] greater than 100 µM, a TGI [41] of 75.5 µM and a TGI [42] of 54.1 µM. For the same molecule, the TGI [43] was 99.6 µM, the TGI [44] was greater than 100 µM and the TGI [45] was greater than 100 µM. For the same molecule, the TGI [46] was 33.6 µM, the TGI [47] was greater than 75.3 µM and the TGI [48] was 72.6 µM. The TGI [49] was 36.7 µM and the TGI [50] was 66.2 µM.
